Results on 7 compounds are retold here after patent US11753407B2, “Compounds for treating spinal muscular atrophy” (PTC Therapeutics, Inc., priority 2012, dated 2023).

As usually defined, the melting point is the temperature of the solid-liquid transition.

The structures appear in SMILES notation.

Data set [1] relates to SMN2 minigene mRNA (SMN2-A minigene) in HEK293H cells. Description: SMN2 minigene mRNA splicing RT-qPCR assay in cultured cells. In kind it is cell-based, human. The note with it: Homo sapiens, HEK293-H; concentration increasing full length SMN2 mRNA 1.5-fold relative to vehicle-treated cells; HEK293H cells with SMN2-A minigene, 24 hours, 7-point concentration data; read-out: EC1.5x for production of full length SMN2 mRNA. An outline of the steps:
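EC1.5× values derive from a 24 h treatment of SMN2-A minigene HEK293H cells and GAPDH-normalized RT-qPCR of exon 7-included minigene mRNA relative to vehicle-treated cells.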
A general note: Quantitative PCR measures a nucleic acid by following its amplification.

In data set [2] the test system is Smn protein in SMA patient fibroblast cells (GM03813). Description: Smn protein assay in cultured cells (SMN HTRF). Format: cell-based, human. As to conditions: SMA patient fibroblast cells, 48 hours; for EC1.5x for Smn protein expression: 7-point concentration curve, SMN HTRF, concentration producing 1.5 times Smn protein vs DMSO vehicle control; for maximum fold (Fold) increase of Smn protein: 7-point concentration data, fold relative to vehicle control. In short, it runs like this:
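Cells were cultured 72 h, seeded at 5,000/well and dosed with seven concentrations (3.16-fold apart) for 48 h. HTRF on lysates, read at 665 and 620 nm, gave blank-corrected ΔF values relative to DMSO. Potency is reported as EC1.5×, efficacy as maximal fold Smn increase.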
In general terms: In TR-FRET formats the signal depends on donor and acceptor labels being close together.

On to `CCN1CC=C(c2ccc3nc(-c4cc(F)c5nc(C)oc5c4)cc(=O)n3c2)CC1` [Compound 318, 7-(1-ethyl-1,2,3,6-tetrahydropyridin-4-yl)-2-(4-fluoro-2-methyl-1,3-benzoxazol-6-yl)-4H-pyrido[1,2-a]pyrimidin-4-one], for which the melting point lay within 151 to 154 °C. In addition, the EC (1.5-fold increase) in data set [1] is under 0.1 µM. Also, in data set [2], the “EC1.5x for Smn protein expression” value is given as “**** (an EC1.5x≤0.3 μM is indicated by four stars (****))” and the “maximum fold (Fold) increase of Smn protein” value (from here on “maximum fold (Fold) increase”) is recorded as “***** (a fold increase >1.65 is indicated by five stars (*****))”.
In turn, `C[C@H]1CN(c2ccc3nc(-c4cc(F)cc(F)c4)cc(=O)n3c2)CCN1` [Compound 105, 2-(3,5-difluorophenyl)-7-[(3S)-3-methylpiperazin-1-yl]-4H-pyrido[1,2-a]pyrimidin-4-one] gave a melting point of 189 to 194 °C. In addition, in data set [1], the EC (1.5-fold increase) lay in the range of 0.1 to 0.3 µM. Further, in data set [2], the “EC1.5x for Smn protein expression” value was “*** (an EC1.5× between >0.3 μM and ≤1 μM is indicated by three stars (***))”; the “maximum fold (Fold) increase” value was “**** (a fold increase between >1.5 and ≤1.65 is indicated by four stars (****))”.
For `CCc1nc(C)cn2nc(-c3cc(=O)n4cc(N5C[C@@H](C)N[C@@H](C)C5)ccc4n3)cc12` [Compound 633, 7-[(3R,5S)-3,5-dimethylpiperazin-1-yl]-2-(4-ethyl-6-methylpyrazolo[1,5-a]pyrazin-2-yl)-4H-pyrido[1,2-a]pyrimidin-4-one], the melting point is 258 to 260 °C. The EC (1.5-fold increase) in data set [1] is under 0.1 µM. Besides, in data set [2], the “EC1.5x for Smn protein expression” value is “**** (an EC1.5x≤0.3 μM is indicated by four stars (****))” and the “maximum fold (Fold) increase” value is on record as “***** (a fold increase >1.65 is indicated by five stars (*****))”.
Regarding `COc1ccc(-c2cc(=O)n3cc(N4CCN[C@H](C)C4)ccc3n2)cc1OC` [Compound 8, 2-(3,4-dimethoxyphenyl)-7-[(3R)-3-methylpiperazin-1-yl]-4H-pyrido[1,2-a]pyrimidin-4-one], the melting point fell in the range of 181 to 184 °C. In addition, in data set [1], the EC (1.5-fold increase) lay within 0.1 to 0.3 µM. Moreover, in data set [2], the “EC1.5x for Smn protein expression” value was “** (an EC1.5× between >1 μM and ≤3 μM is indicated by two stars (**))”; the “maximum fold (Fold) increase” value is “**** (a fold increase between >1.5 and ≤1.65 is indicated by four stars (****))”.
Take `COc1ccc(-c2ccc3nc(N4CCC(N)CC4)cc(=O)n3c2)cc1F` [Cpd 276, 2-(4-aminopiperidin-1-yl)-7-(3-fluoro-4-methoxyphenyl)-4H-pyrido[1,2-a]pyrimidin-4-one]: the melting point lay in the range of 268 to 283 °C. In addition, the EC (1.5-fold increase) in data set [1] lay within 0.3 to 1 µM. For the same compound, the “maximum fold (Fold) increase” value in data set [2] is “* (A maximum fold increase of ≤1.2 is indicated by one star (*))”.
On to `Cc1cn2nc(-c3cc(=O)n4cc(N5CCC6C(CCN6C)C5)ccc4n3)cc2c(C)n1` (stereo not drawn) [Compound 602, 2-(4,6-dimethylpyrazolo[1,5-a]pyrazin-2-yl)-7-(1-methyloctahydro-5H-pyrrolo[3,2-c]pyridin-5-yl)-4H-pyrido[1,2-a]pyrimidin-4-one], for which the melting point was in the range of 210 to 212 °C. Further, the EC (1.5-fold increase) in data set [1] was under 0.1 µM. In data set [2], the “EC1.5x for Smn protein expression” value is “**** (an EC1.5x≤0.3 μM is indicated by four stars (****))”; the “maximum fold (Fold) increase” value was “**** (a fold increase between >1.5 and ≤1.65 is indicated by four stars (****))”.
As to `Cc1cn2nc(-c3cc(=O)n4cc(N5CCC(N(CCO)CCO)CC5)cc(C)c4n3)cc2c(C)n1` [Compound 597, 7-{4-[bis(2-hydroxyethyl)amino]piperidin-1-yl}-2-(4,6-dimethylpyrazolo[1,5-a]pyrazin-2-yl)-9-methyl-4H-pyrido[1,2-a]pyrimidin-4-one], the melting point lay in the range of 218 to 227 °C. The EC (1.5-fold increase) in data set [1] was in the range of 0.1 to 0.3 µM. Besides, in data set [2], the “EC1.5x for Smn protein expression” value is “*** (an EC1.5× between >0.3 μM and ≤1 μM is indicated by three stars (***))”; the “maximum fold (Fold) increase” value was “**** (a fold increase between >1.5 and ≤1.65 is indicated by four stars (****))”.
